In US20060100199A1, “Novel condensed imidazole derivatives” (priority 2003, published 2006):
Where a name gives a salt, the structure may show the parent alone.

Assays:
[1] = target: T1, Porcine kidney-derived DPP-IV (Sus scrofa, UniProt P22411); assay: DPPIV-inhibiting activity assay; format: biochemical; conditions: Gly-Pro-p-nitroanilide 0.33 mM, reaction time 20 minutes, absorbance at 405 nm
T1 construct: Porcine kidney-derived DPP-IV was dissolved in a reaction buffer; from tissue; host or cells: porcine kidney
Experimental: DPPIV-Inhibiting Activity Assay
Porcine kidney-derived DPP-IV was dissolved in a reaction buffer (50 mM Tris-HCl (pH 7.4)/0.1% BSA) at a concentration of 10 mg/ml. After 110 μl of this solution had been combined with 15 μl of an agent, the mixture was incubated at room temperature for 20 minutes. 25 μl of 2 mM Gly-Pro-p-nitroanilide was added (to a final concentration of 0.33 mM) to the solution to initiate the enzyme reaction. The reaction time was 20 minutes. 25 μl of 1N phosphoric acid solution was added to the reaction solution to quench the reaction.

[2] = tested on: fasted male Wistar rats; assay: Effect on the blood glucose level of fasted male Wistar rats (in vivo test); conditions: oral dose of 10-30 (mg/kg); 0.5, 1 and 3 hours after administration; compared with control group treated with the medium alone
Experimental: Purpose: Effect of a Test Compound on the Blood Glucose Level of Fasted Male Wistar Rats
Animal: male Wistar rats (purchased from Charles River Japan, Inc.)
A test compound was suspended in 0.5% methyl cellulose (MC) solution and administered orally at a dose of 5 mL/kg. The control group was treated with a 0.5% MC solution. The solution was administered orally at a dose of 5 mL/kg.
Immediately before administering a test compound or 0.5% MC solution, and 0.5, 1, and 3 hours after the administration, without anesthetic the caudal vein was lightly cut with a razor blade to let the blood out. 10 μL of blood was collected and combined with 140 μL of 0.6 M perchloric acid solution. The sample was centrifuged at 3000 g at 4° C. for 10 minutes and the resultant supernatant was assayed with the Glucose CII TEST WAKO (Wako Pure Chemical Industries).

[3] = target: T2, CYP1A2 (Homo sapiens, UniProt P05177); assay: Assessment for drug-metabolizing enzyme (cytochrome P450), CYP1A2; format: in vitro ADME; conditions: recombinant P450, fluorescent substrate CEC
T2 construct: purchased GENTEST Corp
T2 sequence (P05177 1-516): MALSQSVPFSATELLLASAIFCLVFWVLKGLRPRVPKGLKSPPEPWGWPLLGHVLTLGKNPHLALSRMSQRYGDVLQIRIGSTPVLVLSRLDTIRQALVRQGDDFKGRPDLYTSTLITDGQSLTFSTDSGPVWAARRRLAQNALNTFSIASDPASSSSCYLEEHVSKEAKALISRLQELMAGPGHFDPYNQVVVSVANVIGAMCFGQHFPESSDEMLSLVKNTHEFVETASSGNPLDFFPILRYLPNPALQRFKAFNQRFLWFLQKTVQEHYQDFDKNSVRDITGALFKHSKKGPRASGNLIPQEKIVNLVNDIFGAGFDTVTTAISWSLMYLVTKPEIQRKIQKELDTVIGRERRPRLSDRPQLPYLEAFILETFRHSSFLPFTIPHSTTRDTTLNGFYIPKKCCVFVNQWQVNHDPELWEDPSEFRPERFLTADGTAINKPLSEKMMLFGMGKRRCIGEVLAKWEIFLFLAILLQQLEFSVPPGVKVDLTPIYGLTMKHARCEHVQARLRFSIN
Experimental: (§1) <Assessment for Drug-Metabolizing Enzyme (Cytochrome P450)>
(§2) The experimental conditions used are shown below. The fluorescence intensity was determined using a plate reader (CYTO FLUOR Multi-Well Plate Reader Series 4000; PerSeptive Biosystems Corp.). The degree of inhibition was determined as a mean value from nine independent assays […] using as an index the intensity fluorescence emitted from the metabolite of the fluorescent substrate.
(§3) The substrates, metabolites, inhibitors, excitation wavelengths, and fluorescence wavelengths used in the assay are shown in Table 2.

[4] = target: T3, CYP2C9 (Homo sapiens, UniProt P11712); assay: Assessment for drug-metabolizing enzyme (cytochrome P450), CYP2C9; format: in vitro ADME; conditions: recombinant P450, fluorescent substrate MFC
T3 construct: purchased GENTEST Corp
Experimental: as §1, §2, §3

[5] = target: T4, CYP2C19 (Homo sapiens, UniProt P33261); assay: Assessment for drug-metabolizing enzyme (cytochrome P450), CYP2C19; format: in vitro ADME; conditions: recombinant P450, fluorescent substrate CEC
T4 construct: purchased GENTEST Corp
Experimental: as §1, §2, §3

[6] = tested on: male C57BL/6N mice; assay: Acceptable timing of administration in in vivo test; conditions: oral, simultaneously with vs one hour before glucose loading (2 g/kg); improvement factor for glucose tolerance compared
Experimental: Acceptable Timing of Administration in in vivo Test
The respective tests described below were carried out in combination with the in vivo test (administration before 0.5 hour) as described in Assay Example 2:
1. A test compound is administered simultaneously with glucose loading (2 g/kg) (the test compound is suspended in an aqueous solution of 0.5% methyl cellulose; the solution is combined with an equal volume of a glucose solution; and the mixture is administered orally at a dose of 10 ml/kg);
2. A test compound is administered one hour before glucose loading (2 g/kg) (the test compound suspended in an aqueous solution of 0.5% methyl cellulose is administered orally one hour before the oral administration of the glucose solution; each is given orally at a dose of 10 ml/kg).
The improvement factor for glucose tolerance is estimated in each test.

[7] = target: T5, CYP3A4 (Homo sapiens, UniProt P08684); assay: Assessment for drug-metabolizing enzyme (cytochrome P450), CYP3A4; format: in vitro ADME; conditions: recombinant P450, fluorescent substrate BFC
T5 construct: purchased GENTEST Corp
Experimental: as §1, §2, §3

[8] = target: T6, hERG channel (Homo sapiens, UniProt Q12809); assay: Suppression of hERG channel current; format: cell-based; conditions: HEK-293 cells with hERG channel gene (subtype 1), patch clamp, peak tail current at −50 mV
T6 construct: expressed in transfected cells; host or cells: HEK-293 cells (cell line established by the inventors)
Experimental: <Suppression of hERG Channel Current>
(1) Activity towards inhibiting the hERG channel current was evaluated according to the report Zhou, Z et al, Biophysical Journal, 74(1), 230-241 (1998).
(2) This experiment was carried out using HEK-293 cells into which the hERG channel gene (subtype 1) had been introduced (the cell line was established by the inventors).
(3) One to several days before the experiment, cells were plated on a poly-lysine-coated glass plate. The cells were cultured until the day of the experiment. At the start of the experiment, the cell-seeded glass plate was transferred into a bath for current measurement. The hERG channel current was measured by the voltage clamp method using the patch clamp technique. The current was measured using a current amplifier (Axon Instruments). The current was recorded and analyzed using pCLAMP software (Axon Instruments).
(4) The hERG channel current was induced by applying to the cells a depolarizing pulse from a holding potential of −80 mV to +20 mV for 5 seconds and to −50 mV for 4 seconds, at 20 second intervals. After the current became stable in a control solution, the cells were perfused with solutions containing various concentrations of test compounds.
(5) The amplitude of the hERG channel current was defined as the peak value of the tail current observed upon restoring the potential to −50 mV. The inhibiting effect of a test compound on the hERG channel current (IC50) was estimated based on the change in the peak value of tail current upon addition of the test compound at various concentrations. The peak value of tail current recorded for a normal solution was taken as 100%.

[9] = target: T7, CYP2D6 (Homo sapiens, UniProt P10635); assay: Assessment for drug-metabolizing enzyme (cytochrome P450), CYP2D6; format: in vitro ADME; conditions: recombinant P450, fluorescent substrate AMMC
T7 construct: purchased GENTEST Corp
Experimental: as §1, §2, §3

T5 sequence (P08684 whole entry): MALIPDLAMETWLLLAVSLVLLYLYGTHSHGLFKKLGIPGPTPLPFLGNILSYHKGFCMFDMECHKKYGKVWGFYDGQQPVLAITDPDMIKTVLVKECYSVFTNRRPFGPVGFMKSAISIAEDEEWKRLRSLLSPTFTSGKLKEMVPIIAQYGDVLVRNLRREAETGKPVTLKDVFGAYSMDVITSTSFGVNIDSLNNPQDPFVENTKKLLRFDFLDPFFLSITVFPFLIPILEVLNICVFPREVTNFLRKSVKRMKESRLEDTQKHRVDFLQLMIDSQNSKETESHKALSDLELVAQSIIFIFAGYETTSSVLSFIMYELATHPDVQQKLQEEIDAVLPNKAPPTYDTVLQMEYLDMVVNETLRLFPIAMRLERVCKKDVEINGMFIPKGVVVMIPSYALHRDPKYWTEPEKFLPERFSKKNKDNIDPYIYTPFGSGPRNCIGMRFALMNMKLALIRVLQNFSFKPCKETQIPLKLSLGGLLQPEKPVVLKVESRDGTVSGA
T3 sequence (P11712 whole entry): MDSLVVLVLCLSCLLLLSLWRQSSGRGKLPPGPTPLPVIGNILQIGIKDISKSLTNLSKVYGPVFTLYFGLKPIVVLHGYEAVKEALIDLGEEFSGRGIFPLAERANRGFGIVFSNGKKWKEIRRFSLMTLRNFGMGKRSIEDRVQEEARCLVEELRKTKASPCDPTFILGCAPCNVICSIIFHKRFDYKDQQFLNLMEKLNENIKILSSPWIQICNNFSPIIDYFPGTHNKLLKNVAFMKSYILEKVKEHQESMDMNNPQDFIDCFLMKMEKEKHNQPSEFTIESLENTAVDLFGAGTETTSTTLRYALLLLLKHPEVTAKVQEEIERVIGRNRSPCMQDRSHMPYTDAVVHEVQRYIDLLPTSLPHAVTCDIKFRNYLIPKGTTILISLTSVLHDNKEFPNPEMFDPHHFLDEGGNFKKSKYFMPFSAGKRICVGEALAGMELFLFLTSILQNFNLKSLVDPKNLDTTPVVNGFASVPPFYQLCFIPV
T4 sequence (P33261 whole entry): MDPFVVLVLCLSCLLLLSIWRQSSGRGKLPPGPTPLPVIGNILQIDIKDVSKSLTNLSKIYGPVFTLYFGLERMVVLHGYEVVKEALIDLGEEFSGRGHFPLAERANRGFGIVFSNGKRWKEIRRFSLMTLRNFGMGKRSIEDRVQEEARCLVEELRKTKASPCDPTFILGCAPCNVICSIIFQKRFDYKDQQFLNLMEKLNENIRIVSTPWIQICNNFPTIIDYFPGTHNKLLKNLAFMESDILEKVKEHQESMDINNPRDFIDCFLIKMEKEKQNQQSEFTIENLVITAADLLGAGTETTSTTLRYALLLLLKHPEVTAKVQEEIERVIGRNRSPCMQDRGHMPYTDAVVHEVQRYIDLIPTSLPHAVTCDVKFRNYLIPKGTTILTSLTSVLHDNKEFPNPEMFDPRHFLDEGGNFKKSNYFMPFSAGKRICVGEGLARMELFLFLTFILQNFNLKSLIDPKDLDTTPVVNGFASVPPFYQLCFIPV
T7 sequence (P10635 whole entry): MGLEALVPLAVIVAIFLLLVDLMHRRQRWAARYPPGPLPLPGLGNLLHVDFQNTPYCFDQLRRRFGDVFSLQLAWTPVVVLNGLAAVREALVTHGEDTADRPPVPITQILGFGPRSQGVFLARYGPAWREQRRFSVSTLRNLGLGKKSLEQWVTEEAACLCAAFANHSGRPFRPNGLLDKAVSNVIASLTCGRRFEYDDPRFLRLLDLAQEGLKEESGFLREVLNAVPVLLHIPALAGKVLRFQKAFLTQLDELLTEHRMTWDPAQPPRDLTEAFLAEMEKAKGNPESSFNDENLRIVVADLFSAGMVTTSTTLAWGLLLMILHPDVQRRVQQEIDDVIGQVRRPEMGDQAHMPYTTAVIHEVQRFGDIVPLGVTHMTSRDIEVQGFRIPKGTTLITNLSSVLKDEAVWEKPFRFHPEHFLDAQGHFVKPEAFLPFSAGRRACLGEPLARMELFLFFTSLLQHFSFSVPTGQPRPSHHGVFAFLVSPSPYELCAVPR
T6 sequence (Q12809 whole entry): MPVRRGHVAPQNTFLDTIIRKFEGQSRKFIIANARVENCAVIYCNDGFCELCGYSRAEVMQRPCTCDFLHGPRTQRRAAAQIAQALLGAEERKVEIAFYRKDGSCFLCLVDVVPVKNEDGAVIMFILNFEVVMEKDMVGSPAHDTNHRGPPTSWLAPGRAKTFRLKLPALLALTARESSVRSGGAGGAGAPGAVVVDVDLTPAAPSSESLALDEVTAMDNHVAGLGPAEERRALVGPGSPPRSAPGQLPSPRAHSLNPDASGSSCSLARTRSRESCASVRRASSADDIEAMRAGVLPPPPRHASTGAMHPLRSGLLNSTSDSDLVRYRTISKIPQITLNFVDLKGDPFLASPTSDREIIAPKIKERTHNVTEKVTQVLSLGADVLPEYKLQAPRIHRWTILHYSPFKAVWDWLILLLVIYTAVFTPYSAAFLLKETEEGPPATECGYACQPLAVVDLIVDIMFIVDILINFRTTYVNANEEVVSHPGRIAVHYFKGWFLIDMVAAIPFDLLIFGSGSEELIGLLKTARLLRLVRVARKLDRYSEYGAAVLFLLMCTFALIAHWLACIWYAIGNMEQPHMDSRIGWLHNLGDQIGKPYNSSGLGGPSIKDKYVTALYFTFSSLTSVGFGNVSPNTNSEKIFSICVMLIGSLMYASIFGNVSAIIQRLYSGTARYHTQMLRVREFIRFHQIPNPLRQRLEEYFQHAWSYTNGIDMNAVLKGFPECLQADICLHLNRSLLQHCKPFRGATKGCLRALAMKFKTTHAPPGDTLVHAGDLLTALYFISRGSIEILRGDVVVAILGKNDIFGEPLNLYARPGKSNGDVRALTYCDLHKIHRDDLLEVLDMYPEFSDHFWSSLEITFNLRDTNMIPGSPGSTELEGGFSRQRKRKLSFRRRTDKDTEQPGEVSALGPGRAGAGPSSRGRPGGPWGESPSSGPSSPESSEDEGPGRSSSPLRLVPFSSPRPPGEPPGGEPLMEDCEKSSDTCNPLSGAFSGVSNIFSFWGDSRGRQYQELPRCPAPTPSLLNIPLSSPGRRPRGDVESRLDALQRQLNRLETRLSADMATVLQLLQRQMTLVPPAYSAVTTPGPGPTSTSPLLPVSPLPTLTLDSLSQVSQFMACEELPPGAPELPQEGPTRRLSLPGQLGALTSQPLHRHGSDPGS
T1 sequence (P22411 whole entry): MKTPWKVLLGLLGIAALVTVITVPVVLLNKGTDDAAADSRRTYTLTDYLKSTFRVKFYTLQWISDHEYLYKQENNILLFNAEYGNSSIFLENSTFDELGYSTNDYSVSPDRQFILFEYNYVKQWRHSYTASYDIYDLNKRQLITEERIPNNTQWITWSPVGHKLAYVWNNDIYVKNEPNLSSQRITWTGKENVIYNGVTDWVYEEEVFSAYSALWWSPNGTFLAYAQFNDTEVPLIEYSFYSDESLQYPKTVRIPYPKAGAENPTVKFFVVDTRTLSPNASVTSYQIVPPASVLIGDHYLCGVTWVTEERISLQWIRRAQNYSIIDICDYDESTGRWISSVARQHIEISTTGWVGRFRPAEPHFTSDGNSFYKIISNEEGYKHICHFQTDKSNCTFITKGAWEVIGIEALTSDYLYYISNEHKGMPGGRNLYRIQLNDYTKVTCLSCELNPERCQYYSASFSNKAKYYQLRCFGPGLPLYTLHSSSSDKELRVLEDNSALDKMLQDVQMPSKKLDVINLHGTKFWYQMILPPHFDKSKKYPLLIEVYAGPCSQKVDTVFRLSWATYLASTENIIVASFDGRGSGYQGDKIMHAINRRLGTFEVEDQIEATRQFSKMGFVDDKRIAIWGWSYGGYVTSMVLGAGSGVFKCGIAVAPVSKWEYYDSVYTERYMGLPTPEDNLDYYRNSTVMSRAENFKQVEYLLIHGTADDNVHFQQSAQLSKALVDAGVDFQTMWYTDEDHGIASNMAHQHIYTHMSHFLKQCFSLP

IC50 [1] [µM] | IC50 [3] [µM] | IC50 [4] [µM] | IC50 [5] [µM] | IC50 [7] [µM] | IC50 [9] [µM] | Structure (SMILES) | change in the blood glucose level [2] | range of acceptable timing of administration [6] | IC50 [8] [µM]
0.211 |  |  |  |  |  | CC#CCn1c(N2CCNCC2)nc2nc(Oc3ccccc3CC(=O)OC)n(C)c(=O)c21 [Example 4, Methyl 2-[7-(2-butynyl)-1-methyl-6-oxo-8-(piperazin-1-yl)-6,7-dihydro-1H-purin-2-yloxy]phenylacetate trifluoroacetate] |  |  | 
 | ≥ 10 | ≥ 10 | ≥ 10 | ≥ 10 | ≥ 10 | CC#CCn1c(N2CCNCC2)nc2nc(C#N)n(C)c(=O)c21.O=C(O)C(F)(F)F [Example 82, 7-(2-Butynyl)-2-cyano-1-methyl-8-(piperazin-1-yl)-1,7-dihydropurin-6-one trifluoroacetate] | no significant change | sufficiently wide ranges of acceptable timing of administration | ≥ 30
0.0274 |  |  |  |  |  | CC#CCn1c(N2CCNCC2)nc2nc(C(N)=O)n(C)c(=O)c21 [Example 83, 7-(2-Butynyl)-1-methyl-6-oxo-8-(piperazin-1-yl)-6,7-dihydro-1H-purine-2-carboxamide] |  |  | 
 | ≥ 10 | ≥ 10 | ≥ 10 | ≥ 10 | ≥ 10 | CC#CCn1c(N2CCNCC2)nc2cnn(C)c(=O)c21 [Example 119, 3-(2-Butynyl)-5-methyl-2-(piperazin-1-yl)-3,5-dihydroimidazo[4,5-d]pyridazin-4-one] | no significant change | sufficiently wide ranges of acceptable timing of administration | ≥ 30
 | ≥ 10 | ≥ 10 | ≥ 10 | ≥ 10 | ≥ 10 | CC#CCn1c(N2CCCC(N)C2)nc2cnn(C)c(=O)c21.O=C(O)C(F)(F)F (centres unmarked) [Example 120, 2-(3-Aminopiperidin-1-yl)-3-(2-butynyl)-5-methyl-3,5-dihydroimidazo[4,5-d]pyridazin-4-one trifluoroacetate] | no significant change | sufficiently wide ranges of acceptable timing of administration | ≥ 30
0.0153 | ≥ 10 | ≥ 10 | ≥ 10 | ≥ 10 | ≥ 10 | CC#CCn1c(N2CCNCC2)nc2nc(Oc3ccccc3C(N)=O)n(C)c(=O)c21 [Example 122, 2-[7-(2-Butynyl)-1-methyl-6-oxo-8-(piperazin-1-yl)-6,7-dihydro-1H-purin-2-yloxy]benzamide] | no significant change | sufficiently wide ranges of acceptable timing of administration | ≥ 30
 | ≥ 10 | ≥ 10 | ≥ 10 | ≥ 10 | ≥ 10 | CC#CCn1c(N2CCNCC2)nc2nc(C#N)n(Cc3ccccc3C#N)c(=O)c21.Cl [Example 229, 7-(2-Butynyl)-1-(2-cyanobenzyl)-6-oxo-8-(piperazin-1-yl)-6,7-dihydro-1H-purine-2-carbonitrile hydrochloride] | no significant change | sufficiently wide ranges of acceptable timing of administration | ≥ 30
0.00144 |  |  |  |  |  | CC#CCn1c(N2CCNCC2)nc2nc(Oc3ccccc3C(N)=O)n(Cc3ccc(C#N)cc3)c(=O)c21 [Example 235, 2-[7-(2-Butynyl)-1-(4-cyanobenzyl)-6-oxo-8-(piperazin-1-yl)-6,7-dihydro-1H-purin-2-yloxy]benzamide trifluoroacetate] |  |  | 
 | ≥ 10 | ≥ 10 | ≥ 10 | ≥ 10 | ≥ 10 | CC#CCn1c(N2CCNCC2)nc2cnn(Cc3ccccc3C#N)c(=O)c21.O=C(O)C(F)(F)F [Example 267, 2-[3-(2-Butynyl)-4-oxo-2-(piperazin-1-yl)-3,4-dihydroimidazo[4,5-d]pyridazin-5-ylmethyl]benzonitrile trifluoroacetate] | no significant change | sufficiently wide ranges of acceptable timing of administration | ≥ 30

Structure (SMILES) | IC50 [1] [µM] | IC50 [3] [µM] | IC50 [4] [µM] | IC50 [5] [µM] | IC50 [7] [µM] | IC50 [9] [µM] | change in the blood glucose level [2] | range of acceptable timing of administration [6] | IC50 [8] [µM]
CC#CCn1c(N2CCNCC2)nc2nc(Oc3ccccc3C(N)=O)n(Cc3cccc(C#N)c3)c(=O)c21 [Example 238, 2-[7-(2-Butynyl)-1-(3-cyanobenzyl)-6-oxo-8-(piperazin-1-yl)-6,7-dihydro-1H-purin-2-yloxy]benzamide trifluoroacetate] | 0.00119 |  |  |  |  |  |  |  | 
